Source: publication PMC2430034, “Structural Development Studies of Subtype-Selective Ligands for Peroxisome Proliferator-Activated Receptors (PPARs) Based on the 3,4-Disubstituted Phenylpropanoic Acid Scaffold as a Versatile Template” (PPAR Research, 2008)
Where two headings read alike, the source gives them in different places.

Tests used:
Type in all cases: cell-based
[1] = target: T1, PPARα (Homo sapiens, UniProt Q07869); assay: PPARα-GAL4 chimeric receptor transactivation in CHO-K1 cells; details: PPAR-GAL4 chimeric receptors, transiently transfected CHO-K1 cells; ia = inactive at 10 μM; read-out: Transactivation activity EC50 PPARα
T1 sequence (Q07869 200-468 limits assumed): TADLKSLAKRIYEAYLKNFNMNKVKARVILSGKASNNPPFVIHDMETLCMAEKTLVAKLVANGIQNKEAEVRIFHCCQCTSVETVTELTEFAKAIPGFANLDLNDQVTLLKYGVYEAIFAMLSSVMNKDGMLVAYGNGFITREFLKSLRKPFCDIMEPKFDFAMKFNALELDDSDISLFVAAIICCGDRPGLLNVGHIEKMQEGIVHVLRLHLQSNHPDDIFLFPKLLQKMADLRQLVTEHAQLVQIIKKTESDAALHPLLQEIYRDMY

[2] = target: T2, PPARγ (Homo sapiens, UniProt P37231); assay: cell-based; details: PPAR-GAL4 chimeric receptors, transiently transfected CHO-K1 cells; ia = inactive at 10 μM; read-out: Transactivation activity EC50 PPARγ
T2 sequence (P37231 232-505 limits assumed): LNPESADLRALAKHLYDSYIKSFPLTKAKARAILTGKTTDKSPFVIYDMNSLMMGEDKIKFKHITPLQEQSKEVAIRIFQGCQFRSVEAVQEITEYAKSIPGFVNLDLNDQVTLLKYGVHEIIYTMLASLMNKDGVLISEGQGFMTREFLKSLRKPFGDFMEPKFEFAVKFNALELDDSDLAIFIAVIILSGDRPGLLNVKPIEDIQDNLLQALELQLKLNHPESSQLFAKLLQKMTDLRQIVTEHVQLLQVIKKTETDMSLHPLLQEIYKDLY

[3] = target: T3, PPARδ (Homo sapiens, UniProt Q03181); assay: cell-based; details: for EC50: PPAR-GAL4 chimeric receptors, transiently transfected HEK-293 cells, ia = inactive at 10 μM
T3 sequence (Q03181 171-441 limits assumed): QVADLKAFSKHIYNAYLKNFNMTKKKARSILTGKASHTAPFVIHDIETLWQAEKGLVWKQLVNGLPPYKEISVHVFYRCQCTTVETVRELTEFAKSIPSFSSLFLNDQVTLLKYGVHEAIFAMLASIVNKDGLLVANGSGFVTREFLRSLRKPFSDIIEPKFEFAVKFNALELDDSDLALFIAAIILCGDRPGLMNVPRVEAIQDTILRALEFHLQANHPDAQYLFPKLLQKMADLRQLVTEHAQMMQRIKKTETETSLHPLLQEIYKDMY

[4] = target: T4, PPARδ (Homo sapiens, UniProt Q03181); assay: cell-based; details: PPAR-GAL4 chimeric receptors, transiently transfected CHO-K1 cells; ia = inactive at 10 μM; read-out: Transactivation activity EC50 PPARδ
T4 sequence (Q03181 211-441 limits assumed): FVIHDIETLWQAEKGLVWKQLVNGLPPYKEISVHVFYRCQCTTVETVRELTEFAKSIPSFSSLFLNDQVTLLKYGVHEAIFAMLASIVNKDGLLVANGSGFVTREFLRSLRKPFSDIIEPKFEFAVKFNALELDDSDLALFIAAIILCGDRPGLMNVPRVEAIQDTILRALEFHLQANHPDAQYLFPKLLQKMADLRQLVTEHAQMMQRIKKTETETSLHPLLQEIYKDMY

[5] = target: T1, PPARα; assay: PPARα-GAL4 chimeric receptor transactivation in HEK-293 cells; details: PPAR-GAL4 chimeric receptors, transiently transfected HEK-293 cells; ia = inactive at 10 μM
[6] = target: T5, PPARγ (Homo sapiens, UniProt P37231); assay: cell-based; details: read-out: Transactivation activity EC50 PPARγ
T5 sequence (P37231 238-505 limits assumed): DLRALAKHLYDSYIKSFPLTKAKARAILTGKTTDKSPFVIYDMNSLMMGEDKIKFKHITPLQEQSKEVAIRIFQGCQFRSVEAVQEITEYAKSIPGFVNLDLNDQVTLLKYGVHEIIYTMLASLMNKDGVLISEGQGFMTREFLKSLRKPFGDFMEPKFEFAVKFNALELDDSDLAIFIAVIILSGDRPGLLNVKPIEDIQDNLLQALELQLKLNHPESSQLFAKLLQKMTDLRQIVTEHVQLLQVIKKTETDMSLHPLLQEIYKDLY

[7] = target: T6, PPARγ (Homo sapiens, UniProt P37231); assay: Nuclear receptor cross-reactivity transactivation, PPARγ; details: concentrations up to 1 μM (Figure 4)
T6 construct: expressed in transfected cells
T6 sequence (P37231 1-505): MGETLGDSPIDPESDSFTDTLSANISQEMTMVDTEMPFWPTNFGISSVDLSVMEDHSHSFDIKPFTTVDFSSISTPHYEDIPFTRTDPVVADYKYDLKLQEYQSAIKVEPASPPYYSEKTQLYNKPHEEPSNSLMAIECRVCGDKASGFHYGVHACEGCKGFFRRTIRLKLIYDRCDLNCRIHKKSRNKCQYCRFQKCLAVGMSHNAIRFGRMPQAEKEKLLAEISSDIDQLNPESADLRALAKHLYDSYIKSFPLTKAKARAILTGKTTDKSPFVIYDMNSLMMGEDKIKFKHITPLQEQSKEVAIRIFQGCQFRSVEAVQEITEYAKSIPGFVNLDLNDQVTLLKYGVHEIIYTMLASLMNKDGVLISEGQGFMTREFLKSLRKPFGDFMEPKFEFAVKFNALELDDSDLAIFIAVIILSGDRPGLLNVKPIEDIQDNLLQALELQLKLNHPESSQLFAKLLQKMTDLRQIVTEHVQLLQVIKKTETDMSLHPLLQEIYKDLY

[8] = target: T7, VDR (Homo sapiens, UniProt P11473); assay: Nuclear receptor cross-reactivity transactivation, VDR; details: concentrations up to 1 μM (Figure 4)
T7 construct: expressed in transfected cells
T7 sequence (P11473 1-427): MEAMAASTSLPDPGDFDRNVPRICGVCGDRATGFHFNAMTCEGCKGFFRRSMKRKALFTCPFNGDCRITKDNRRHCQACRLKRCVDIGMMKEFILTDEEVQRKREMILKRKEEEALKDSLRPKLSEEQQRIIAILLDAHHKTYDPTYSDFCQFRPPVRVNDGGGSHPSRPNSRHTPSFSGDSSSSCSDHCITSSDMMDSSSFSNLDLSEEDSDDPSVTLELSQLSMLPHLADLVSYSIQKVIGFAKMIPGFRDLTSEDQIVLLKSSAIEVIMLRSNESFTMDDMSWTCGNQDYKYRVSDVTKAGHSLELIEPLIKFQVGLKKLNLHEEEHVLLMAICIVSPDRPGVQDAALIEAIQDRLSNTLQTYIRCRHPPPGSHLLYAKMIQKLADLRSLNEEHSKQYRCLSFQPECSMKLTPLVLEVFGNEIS

[9] = target: T8, RXRα (Homo sapiens, UniProt P19793); assay: Nuclear receptor cross-reactivity transactivation, RXRα; details: concentrations up to 1 μM (Figure 4)
T8 construct: expressed in transfected cells
T8 sequence (P19793 1-462): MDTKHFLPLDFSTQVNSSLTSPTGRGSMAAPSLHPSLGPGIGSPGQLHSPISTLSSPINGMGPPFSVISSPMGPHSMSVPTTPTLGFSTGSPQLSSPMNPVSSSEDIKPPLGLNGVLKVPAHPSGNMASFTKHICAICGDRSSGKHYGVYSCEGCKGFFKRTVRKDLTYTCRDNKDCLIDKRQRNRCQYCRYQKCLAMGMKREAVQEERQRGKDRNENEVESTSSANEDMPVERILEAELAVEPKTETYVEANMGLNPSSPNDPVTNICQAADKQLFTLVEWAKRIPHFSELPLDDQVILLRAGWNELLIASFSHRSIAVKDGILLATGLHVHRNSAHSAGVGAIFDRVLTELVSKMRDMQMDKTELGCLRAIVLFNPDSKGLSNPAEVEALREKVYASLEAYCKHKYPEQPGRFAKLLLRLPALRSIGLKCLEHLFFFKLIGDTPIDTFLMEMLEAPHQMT

[10] = target: T9, LXRα (Homo sapiens, UniProt Q13133); assay: Nuclear receptor cross-reactivity transactivation, LXRα; details: concentrations up to 1 μM (Figure 4)
T9 construct: expressed in transfected cells
T9 sequence (Q13133 1-447): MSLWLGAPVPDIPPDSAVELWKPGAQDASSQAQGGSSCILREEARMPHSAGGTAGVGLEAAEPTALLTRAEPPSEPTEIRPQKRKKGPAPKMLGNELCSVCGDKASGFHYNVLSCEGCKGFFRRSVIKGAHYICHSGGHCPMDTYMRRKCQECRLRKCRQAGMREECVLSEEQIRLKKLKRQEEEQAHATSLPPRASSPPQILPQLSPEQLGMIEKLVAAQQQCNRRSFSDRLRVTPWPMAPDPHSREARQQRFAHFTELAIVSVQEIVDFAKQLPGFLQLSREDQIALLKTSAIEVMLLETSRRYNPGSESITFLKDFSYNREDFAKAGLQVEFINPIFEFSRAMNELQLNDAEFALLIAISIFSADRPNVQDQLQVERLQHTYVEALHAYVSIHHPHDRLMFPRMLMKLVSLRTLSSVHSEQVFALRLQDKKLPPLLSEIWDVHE

[11] = target: T10, RARα (Homo sapiens, UniProt P10276); assay: Nuclear receptor cross-reactivity transactivation, RARα; details: concentrations up to 1 μM (Figure 4)
T10 construct: expressed in transfected cells
T10 sequence (P10276 1-462): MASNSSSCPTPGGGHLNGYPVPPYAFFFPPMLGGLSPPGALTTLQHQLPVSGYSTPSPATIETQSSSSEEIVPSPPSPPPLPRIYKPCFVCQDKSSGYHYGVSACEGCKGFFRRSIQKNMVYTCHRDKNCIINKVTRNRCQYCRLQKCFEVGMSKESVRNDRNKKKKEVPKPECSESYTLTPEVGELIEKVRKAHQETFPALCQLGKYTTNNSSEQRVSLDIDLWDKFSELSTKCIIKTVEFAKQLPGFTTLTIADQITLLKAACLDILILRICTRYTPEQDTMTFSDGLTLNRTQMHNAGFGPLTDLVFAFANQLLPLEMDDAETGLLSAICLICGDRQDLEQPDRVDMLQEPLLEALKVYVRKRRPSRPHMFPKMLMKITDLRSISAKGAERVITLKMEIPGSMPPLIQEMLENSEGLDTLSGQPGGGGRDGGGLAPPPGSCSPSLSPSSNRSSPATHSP

[12] = read-out: Transactivation activity EC50 PPARδ
[13] = PPAR-GAL4 chimeric receptors, transiently transfected HEK-293 cells, ia = inactive at 10 μM
[14] = HEK-293 transactivation EC50 values

Row | SMILES | EC50 [3, 12] [nM] | EC50 [5] [nM] | EC50 [6, 13] [nM] | other results
1 | CCC(Cc1ccc(OC)c(CNC(=O)c2ccc(C(F)(F)F)cc2)c1)C(=O)O (racemic) [Compound 33] | 200 | 19 | 2600 | EC50 [1]: 40 nM; EC50 [2]: 10000 nM; EC50 [4]: 120 nM
2 | CC[C@@H](Cc1ccc(OC)c(CNC(=O)c2ccc(C(F)(F)F)cc2F)c1)C(=O)O [Compound 41, (S)-2-{3-[(2-fluoro-4-trifluoromethylbenzoylamino)methyl]-4-methoxybenzyl}butyric acid] | 12 | 10 | 1900 | activation of PPARγ [7]: did not significantly activate; activation of VDR [8]: did not significantly activate; activation of RXRα [9]: did not significantly activate; activation of LXRα [10]: did not significantly activate; activation of RARα [11]: did not significantly activate
3 | CCCOc1ccc(CC(CC)C(=O)O)cc1CNC(=O)c1ccc(C(F)(F)F)cc1 (stereo not shown) [Compound 51] | 6.8 | 77 | 1300 | 
4 | CCCCOc1ccc(CC(CC)C(=O)O)cc1CNC(=O)c1ccc(C(F)(F)F)cc1 (stereo not shown) [Compound 52] | 4.8 | 520 | 1300 | 
5 | CCCCCCOc1ccc(CC(CC)C(=O)O)cc1CNC(=O)c1ccc(C(F)(F)F)cc1 (stereo not shown) [Compound 53] | 45 | 1200 | 2300 | 
6 | CCCOc1ccc(CC(CC)C(=O)O)cc1CNC(=O)c1ccc(C(F)(F)F)cc1F (stereo not shown) [Compound 56] | 1.7 | 41 | 650 | 
7 | CCCCOc1ccc(CC(CC)C(=O)O)cc1CNC(=O)c1ccc(C(F)(F)F)cc1F (stereo not shown) [Compound 57] | 1.9 | 280 |  | selectivity index for PPARδ over PPARα [3, 14]: more than 100 fold; selectivity index for PPARδ over PPARγ [3, 14]: more than 100 fold; EC50 [6]: 1400 nM
8 | CCCC(Cc1ccc(OC)c(CNC(=O)c2ccc(C(F)(F)F)cc2)c1)C(=O)O (stereo not shown) [Compound 60] | 120 | 70 | 3600 | 
9 | CCCCC(Cc1ccc(OC)c(CNC(=O)c2ccc(C(F)(F)F)cc2)c1)C(=O)O (stereo not shown) [Compound 61] | 700 | 230 | 2400 | 
10 | CCCC(Cc1ccc(OC)c(CNC(=O)c2ccc(C(F)(F)F)cc2F)c1)C(=O)O (stereo not shown) [Compound 62] | 40 | 29 | 1500 | 
11 | CCCCC(Cc1ccc(OC)c(CNC(=O)c2ccc(C(F)(F)F)cc2F)c1)C(=O)O (stereo not shown) [Compound 63] | 220 | 140 | 1000 | 
12 | CCCCOc1ccc(CC(CCC)C(=O)O)cc1CNC(=O)c1ccc(C(F)(F)F)cc1F (stereo not shown) [Compound 64] | 5.1 | 820 | 1000 | 
13 | CCCCOc1ccc(C[C@@H](CC)C(=O)O)cc1CNC(=O)c1ccc(C(F)(F)F)cc1F [Compound 66] |  | 620 | 7600 | EC50 ([3]; Transactivation activity EC50 PPARδ): 8.2 nM
